{"source": "patent US6071525A", "about": "“Whitening cosmetics containing mulberrin” (priority 1997, dated 2000)", "key": {"tyrosinase [1]": {"biological_target": "tyrosinase", "test": "Tyrosinase inhibition effect (mushroom tyrosinase, tyrosine substrate, absorbance at 475 nm)", "assay_type": "biochemical", "settings": "pH 6.8, 37° C., 10 minutes", "procedure": "The substrate, tyrosine was used as a solution (0.1 mg/ml) dissolved in 0.05 M sodium phosphate buffer (pH 6.8). […] Then 200 U/ml tyrosinase (0.5 ml) was added thereto, and the reaction performed at the same temperature for 10 minutes. As a control group, buffer solution (0.5 ml) was added instead of the compound. The reaction was quenched by placing the test tube containing the reaction mixture on ice. Absorbance was measured at a wavelength of 475 nm by using a spectrophotometer."}, "[2]": {"system": "B-16 melanoma (ATCC CRL 6323) cell line", "test": "Effect for melanin synthesis in melanocytes (B-16 melanoma)", "assay_type": "cell-based, mouse", "method": "As melanocytes, commercially available B-16 melanoma (ATCC CRL 6323) cell line derived from mouse was used. The melanoma cell line was inoculated in DMEM culture medium containing glucose (4.5 g/l), 10% serum and 1% antibiotic agent, and cultivated in a 50 ml T-flask at 37° C. After cultivation under a condition of 5% CO2 for 24 hours, the culture solution was treated with 0.05% trypsin containing 0.02% EDTA to isolate cells, which was then inoculated in a 50 ml T-flask and cultivated for 48 hours. At this time, the number of cells was 5.76×10^6 cells/flask. A diluted solution of mulberrin in DMEM medium at a proper concentration was incorporated to the cultivated melanoma cells, and the mixture was cultivated at 37° C. for 5 days. After finishing cultivation, culture medium was thoroughly removed, and the residue was treated with 1 ml of saline-phosphate buffer solution (PBS) containing 0.02% EDTA and 0.05% trypsin to isolate cells, which were then centrifuged for 5 minutes to collect pure cells. The obtained cells were treated with a solution of 5% trichloroacetate (TCA), stirred, and centrifuged. Precipitated melanin was washed with saline-phosphate buffer solution, and treated with 1N NaOH to dissolve melanin therein. Absorbance at 475 nm was measured. Melanin concentration was determined from standard concentration curve of synthetic melanin (produced by Sigma)."}, "skin [3]": {"system": "skin", "test": "Whitening effect (general statement)", "settings": "versus Cortex mori, kojic acid, arbutin and Ramulus mori extract"}, "tyrosinase [4]": {"system": "tyrosinase", "settings": "background; cited from earlier work"}, "skin [5]": {"system": "skin", "settings": "background; cited from earlier work"}, "skin [6]": {"system": "skin", "settings": "background; cited from earlier work", "remark": "listed apart in the source"}}, "note": "“Also recorded” adds a separate entry of the source. Read-outs that look alike come from different tables or passages of the source."}
{"smiles": "CC(C)=CCc1c(-c2ccc(O)cc2O)oc2c(CC=C(C)C)c(O)cc(O)c2c1=O", "note": "[Mulberrin, mulberrin]", "values": [{"measurement": "IC50 (concentration required for 50% inhibition of tyrosinase activity)", "setting": "tyrosinase [1]", "result": 0.50, "unit": "µg/mL"}, {"measurement": "inhibition of melanin synthesis (in words)", "setting": "[2]", "result": "very excellent effect in inhibiting melanin synthesis"}, {"measurement": "inhibition at 10 µg/mL", "setting": "[2]; Mus musculus, B16, 120 h, mulberrin 10 μg/ml, 5 days, 37° C., read-out: Inhibition ratio of melanin synthesis", "result": 54.4, "unit": "%"}, {"measurement": "inhibition at 20 µg/mL", "setting": "[2]; Mus musculus, B16, 120 h, mulberrin 20 μg/ml, 5 days, 37° C., read-out: Inhibition ratio of melanin synthesis", "result": 66.8, "unit": "%"}, {"measurement": "inhibition at 50 µg/mL", "setting": "[2]; Mus musculus, B16, 120 h, mulberrin 50 μg/ml, 5 days, 37° C., read-out: Inhibition ratio of melanin synthesis", "result": 74.8, "unit": "%"}, {"measurement": "inhibition at 100 µg/mL", "setting": "[2]; Mus musculus, B16, 120 h, mulberrin 100 μg/ml, 5 days, 37° C., read-out: Inhibition ratio of melanin synthesis", "result": 89.3, "unit": "%"}, {"measurement": "inhibition of melanin synthesis (in words)", "setting": "[2]; listed as mulberrin", "result": "strong whitening agent inhibiting melanin synthesis in melanocytes; also recorded: very strong inhibition effect of melanin synthesis"}, {"measurement": "Content of melanin", "setting": "[2]; mulberrin 10 μg/ml, 5 days, 37° C.", "result": 1.95, "unit": "pg/cell"}, {"measurement": "Content of melanin", "setting": "[2]; mulberrin 20 μg/ml, 5 days, 37° C.", "result": 1.42, "unit": "pg/cell"}, {"measurement": "Content of melanin", "setting": "[2]; mulberrin 50 μg/ml, 5 days, 37° C.", "result": 1.07, "unit": "pg/cell"}, {"measurement": "Content of melanin", "setting": "[2]; mulberrin 100 μg/ml, 5 days, 37° C.", "result": 0.46, "unit": "pg/cell"}, {"measurement": "whitening effect compared with conventional whitening agents (in words)", "setting": "skin [3]", "result": "much more intensive whitening effect than conventional whitening agents"}]}
{"smiles": "O=c1cc(CO)occ1O", "note": "[Kojic acid, kojic acid]", "values": [{"measurement": "inhibition of tyrosinase (in words)", "setting": "tyrosinase [4]", "result": "high activity"}]}
{"smiles": "Oc1ccc(O)cc1", "note": "[Hydroquinone]", "values": [{"measurement": "whitening activity (in words)", "setting": "skin [5]", "result": "irreversible whitening activity"}, {"measurement": "carcinogenicity (in words)", "setting": "skin [6]", "result": "recognized as a carcinogen"}, {"measurement": "skin irritation (in words)", "setting": "skin [6]", "result": "irritates the skin strongly"}]}
{"smiles": "O=C1O[C@H]([C@@H](O)CO)C(O)=C1O", "note": "[Ascorbic acid (vitamin C), Ascorbic acid]", "values": [{"measurement": "inhibition of tyrosinase (in words)", "setting": "tyrosinase [4]", "result": "relatively low activity in inhibition of tyrosinase"}]}
